Data: patent publication US20150259331A1, “PROTOZOAN PARASITE GROWTH INHIBITORS” (Northeastern University, priority 2014, published 2015)
pEC50: −log10 of the molar value. Like-named read-outs stand apart in the source and are kept apart here.

Experiments:
[1] = system: T. brucei brucei Lister 427; assay: Trypanosome replication assay; format: cell-based, Trypanosoma brucei brucei; conditions: Trypanosoma brucei, 48 h, 48 h, values ±7%
[2] = system: L. major amastigote; assay: L. major amastigote assay; format: cell-based; conditions: Leishmania major
[3] = system: L. major promastigote; assay: L. major promastigote assay; format: cell-based; conditions: Leishmania major
[4] = system: P. fal; assay: P. fal assay of Table 13 (strain not given); format: cell-based, P. falciparum; conditions: Plasmodium falciparum
[5] = system: T. cruzi; assay: T. cruzi growth inhibition; format: cell-based, Trypanosoma cruzi; conditions: Trypanosoma cruzi
[6] = system: HepG2 cells; assay: HepG2 cell toxicity (MTT) assay; format: cell-based; conditions: Table 13; read-out: HepG2 TC50
[7] = concentration giving 50% inhibition of growth of T brucei brucei Lister 427 cells, read-out: Tbb EC50
[8] = read-out: Tbb EC50, concentration giving 50% inhibition of growth of T brucei brucei Lister 427 cells

Compound	pEC50 [1, 7]	pEC50 [2]	pEC50 [3]	pEC50 [4]	pEC50 [5]	CC50 [6]	pEC50 [1, 8]
CN1CCN(S(=O)(=O)c2ccc(-c3ccc4cnnc(Nc5ccc(OCc6cccc(F)c6)c(Cl)c5)c4c3)cc2)CC1 [NEU-1043, N-(3-Chloro-4-((3-fluorobenzyl)oxy)phenyl)-7-(4-((4-methylpiperazin-1-yl)sulfonyl)phenyl)phthalazin-1-amine, Formic Acid]	–	< 5.40	< 5.49	6.89	< 4.30	> 5000 nM	5.70
CN1CCN(S(=O)(=O)c2ccc(-c3ccc4c(Nc5ccc(OCc6cccc(F)c6)c(Cl)c5)nncc4c3)cc2)CC1 [NEU-1041, N-(3-Chloro-4-((3-fluorobenzyl)oxy)phenyl)-6-(4-((4-methylpiperazin-1-yl)sulfonyl)phenyl)phthalazin-1-amine, Formic Acid]	–	< 4.82	5.89	7.35	4.74	> 15000 nM	5.92
CN1CCCN(S(=O)(=O)c2ccc(-c3ccc4c(Nc5ccc(OCc6cccc(F)c6)c(Cl)c5)nncc4c3)cc2)CC1 [NEU-1042, N-(3-Chloro-4-((3-fluorobenzyl)oxy)phenyl)-6-(4-((4-methyl-1,4-diazepan-1-yl)sulfonyl)phenyl)phthalazin-1-amine, Formic Acid]	–	5.96	6.39	7.54	5.89	3400 nM	6.29
CN1CCCN(S(=O)(=O)c2ccc(-c3ccc4cnnc(Nc5ccc(OCc6cccc(F)c6)c(Cl)c5)c4c3)cc2)CC1 [NEU-1044, N-(3-Chloro-4-((3-fluorobenzyl)oxy)phenyl)-7-(4-((4-methyl-1,4-diazepan-1-yl)sulfonyl)phenyl)phthalazin-1-amine, Formic Acid]	–	5.25	< 4.82	7.03	4.77	14000 nM	6.21

Further lines, with some results ahead:

pEC50 [1, 7]	pEC50 [2]	pEC50 [3]	pEC50 [4]	pEC50 [5]	Compound	CC50 [6]	pEC50 [1, 8]
6.85	5.64	6.40	7.07	6.03	CN1CCCN(S(=O)(=O)c2ccc(-c3ccc4nccc(Nc5ccc(OCc6cccc(F)c6)c(Cl)c5)c4c3)cc2)CC1 [NEU-958, N-(3-Chloro-4-((3-fluorobenzyl)oxy)phenyl)-6-(4-((4-methyl-1,4-diazepan-1-yl)sulfonyl)phenyl)quinolin-4-amine]	4300 nM	–
6.00	< 4.82	< 4.82	6.96	< 4.30	O=S(=O)(c1ccc(-c2ccc3c(Nc4ccc(OCc5ccccc5)c(Cl)c4)nncc3c2)cc1)N1CCOCC1 [NEU-1039, N-(4-(Benzyloxy)-3-chlorophenyl)-6-(4-(morpholinosulfonyl)phenyl)phthalazin-1-amine]	> 15000 nM	–
7.06	6.06	6.40	7.03	6.14	CN1CCCN(S(=O)(=O)c2ccc(-c3ccc4c(Nc5ccc(OCc6cccc(F)c6)c(Cl)c5)ccnc4c3)cc2)CC1 [NEU-943, N-(3-Chloro-4-((3-fluorobenzyl)oxy)phenyl)-7-(4-((4-methyl-1,4-diazepan-1-yl)sulfonyl)phenyl)quinolin-4-amine]	5000 nM	–
6.34	5.70	6.22	4.80	5.28	CN1CCN(S(=O)(=O)c2ccc(-c3ccc4nccc(Nc5ccc(OCc6cccc(F)c6)c(Cl)c5)c4c3)cc2)CC1 [NEU-960, N-(3-Chloro-4-((3-fluorobenzyl)oxy)phenyl)-6-(4-((4-methylpiperazin-1-yl)sulfonyl)phenyl)quinolin-4-amine]	6400 nM	–
6.05	< 4.82	5.01	6.70	4.35	Fc1cccc(COc2ccc(Nc3cnnc4cc(-c5cccc(N6CCOCC6)c5)ccc34)cc2Cl)c1 [NEU-1014, N-(3-Chloro-4-((3-fluorobenzyl)oxy)phenyl)-7-(3-morpholinophenyl)cinnolin-4-amine]	11000 nM	–
